Data from the supplement of paper PMC8988213.
Structures can show the parent of a compound that is named as a salt.

What was measured:
[1] = test system: ID188 patient-derived PDAC 2D line (pre-FOLFIRINOX); experiment: normalised area under dose-response curve (viability relative to DMSO, 7 doses up to 10 µM) (fraction (AUC)); higher = less sensitive (more viability retained); details: 72 h; top dose: 10 µM
In short: (§1)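 2D PDAC cells grown out from patient-derived organoids were robotically seeded in 96-well plates at 1,500–3,000 cells/well and kept overnight at 37°C in 5% CO2. Compounds from a SelleckChem library were then applied for 72 h at seven concentrations, made as a 3-fold dilution series with 10 µM as the highest. CellTiter-Glo luminescence was measured 10 min later. Viability was normalised to control wells, and the GRmetrics R package was used to derive the area under the dose-response curve.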

[2] = test system: ID211 patient-derived PDAC 2D line (post-FOLFIRINOX); experiment: as above; details: 72 h; top dose: 10 µM
In short: as §1

Compound | normalised area under dose-response curve [1] | normalised area under dose-response curve [2]
CN[C@@H](C)C(=O)N[C@H](C(=O)N1CCC[C@H]1C(=O)Nc1snnc1-c1ccccc1)C1CCCCC1 [GDC-0152] | 0.667 | 0.849
Cn1nccc1Nc1nccc(-c2ccn([C@H](CO)c3ccc(Cl)c(F)c3)c(=O)c2)n1 [GDC-0994] | 0.824 | 0.677
N#CN=C(NCCCCCCOc1ccc(Cl)cc1)Nc1ccncc1 [GMX1778 (CHS828)] | 0.283 | 0.296
CC[C@H](C)n1cc(C)c2c(C(=O)NCc3c(C)cc(C)[nH]c3=O)cc(-c3ccc(N4CCNCC4)nc3)cc21 [GSK126] | 1.02 | 0.95
Cc1cc(C)c(CNC(=O)c2cc(-c3ccc(N4CCN(C)CC4)nc3)cc3c2c(C)cn3C(C)C)c(=O)[nH]1 [GSK503] | 0.992 | 0.891
CC(C)(C)S(=O)(=O)c1ccc2nccc(Nc3n[nH]c4ccc(F)cc34)c2c1 [GSK583] | 0.9 | 0.893
O=C(NC[C@H](O)CN1CCc2ccccc2C1)c1ccnc(NC2CCC2)c1 [GSK591] | 0.843 | 0.881
CC(C)(C)C(=O)N1N=CC[C@H]1c1ccccc1 [GSK963] | 0.939 | 0.857
CCCOc1ccn2c(C(C)=O)cc(-c3ccccc3S(C)(=O)=O)c2c1 [GSK2801] | 0.964 | 0.782
O=C(O)CCNc1cc(N2CCc3ccccc3CC2)nc(-c2ccccn2)n1 [GSK J1] | 1 | 0.832
Cc1cc(SCc2sc(-c3ccc(C(F)(F)F)c(F)c3)nc2C)ccc1OCC(=O)O [GW0742] | 0.763 | 0.93
O=C(O)Cc1cccc(OCCCN(Cc2cccc(C(F)(F)F)c2Cl)CC(c2ccccc2)c2ccccc2)c1 [GW3965 HCl] | 0.923 | 0.825
O=C(Nc1ccccc1)c1cc([N+](=O)[O-])ccc1Cl [GW9662] | 0.931 | 0.936
CC(C)c1cc(-c2n[nH]c(=O)n2-c2ccc3c(ccn3C)c2)c(O)cc1O [Ganetespib (STA-9090)] | 0.483 | 0.266
Nc1ccn([C@@H]2O[C@H](CO)[C@@H](O)C2(F)F)c(=O)n1 [Gemcitabine HCl] | 0.57 | 0.583
CCn1c2ccccc2c2cc(CNCc3ccccc3OC)ccc21 [HLCL-61 HCL] | 0.957 | 0.856
Cc1nc(Nc2cnn(C3CCNCC3)c2)nc2c1N(C)C(=O)c1cc3ccccc3cc1N2C [HTH-01-015] | 1.2 | 0.823
CCNC(=O)C[C@@H]1N=C(c2ccc(Cl)cc2)c2cc(OC)ccc2-n2c(C)nnc21 [I-BET-762] | 0.888 | 0.777
CCn1cc(-c2cccc(C(F)(F)F)c2)c2sc(C(=N)NC3CCS(=O)(=O)CC3)cc2c1=O [I-BRD9] | 1.01 | 0.833
O=C(O)c1ccc(O)c2ncccc12 [IOX1] | 0.95 | 0.871
O=C(CSc1nc2c(c(=O)n1-c1ccccc1)SCC2)Nc1ccc(-c2ccccc2)cn1 [IWP-L6] | 0.968 | 0.804
O=C(Nc1cccc2cccnc12)c1ccc(N2C(=O)[C@@H]3[C@H](C2=O)[C@@H]2C=C[C@H]3C2)cc1 [IWR-1-endo] | 0.938 | 0.808
CNC(=O)[C@H](Cc1c[nH]c2ccccc12)NC(=O)[C@@H](CC(=O)NO)CC(C)C [Ilomastat (GM6001, Galardin)] | 1.05 | 0.809
CC(Nc1nc(N2CCCC2)nc2ccccc12)c1ccccc1 (stereo unspecified) [Importazole] | 0.956 | 0.849
O=C1Nc2ccccc2/C1=C1/Nc2ccccc2C1=O [Indirubin] | 0.791 | 0.801
NC(=O)c1ccc(I)c([N+](=O)[O-])c1 [Iniparib (BSI-201)] | 0.939 | 0.952
CCc1c2c(nc3ccc(OC(=O)N4CCC(N5CCCCC5)CC4)cc13)-c1cc3c(c(=O)n1C2)COC(=O)[C@]3(O)CC [Irinotecan HCl Trihydrate] | 0.847 | 0.807

Compound | normalised area under dose-response curve [1] | normalised area under dose-response curve [2]
CC(C)C[C@H](NC(=O)CNC(=O)c1cc(Cl)ccc1Cl)B1OC(=O)C(CC(=O)O)(CC(=O)O)O1 [Ixazomib Citrate (MLN9708)] | 0.425 | 0.48
Clc1ccc(NN=C(c2ccccc2)c2ccccn2)nc1 [JIB-04] | 0.641 | 0.662
Cc1cc(NC(=O)c2cccc(NC(=O)/C=C/CN(C)C)c2)ccc1Nc1nccc(-c2cccnc2)n1 [JNK-IN-8] | 0.874 | 0.842
Cc1ccc(NCCCc2ccccc2)c(N)c1 [JSH-23] | 0.97 | 0.79
O=C(Cc1ccc(-c2ccc(OCCN3CCOCC3)cc2)cn1)NCc1ccccc1 [KX2-391] | 0.624 | 0.508
O=C(O)CCN1C(=O)/C(=C/c2ccc(-c3ccc([N+](=O)[O-])cc3)o2)SC1=S [KYA1797K] | 0.976 | 0.835
CN[C@@H](C)C(=O)N[C@H](C(=O)N1CCC[C@H]1c1nc(C(=O)c2ccc(F)cc2)cs1)C1CCCCC1 [LCL161] | 0.585 | 0.922
CN1CCN(c2ccc(-c3ccncc3-c3cc(F)c(O)c(F)c3)cc2)CC1 [LJH685] | 0.943 | 0.83
Cc1cn(CCN2CCN(c3ccccc3-c3cc(C#N)cc(C(=O)NCCCN4CCCC4)c3)CC2)c2ccccc12 [LLY-507] | 0.859 | 0.842
NCCCC[C@H](NC(=O)[C@@H](NC(=O)[C@H](Cc1c[nH]c2ccccc12)NC(=O)[C@H](CCCCN)NC(=O)[C@H](CCCCN)NC(=O)[C@H](Cc1c[nH]c2ccccc12)NC(=O)[C@H](Cc1c[nH]c2ccccc12)NC(=O)[C@H](CCCCN)NC(=O)[C@@H](N)CCCCN)C(c1ccccc1)c1ccccc1)C(N)=O [LTX-315] | 0.943 | 0.804
Cc1ccc(F)c(NC(=O)Nc2ccc(-c3cccc4[nH]nc(N)c34)cc2)c1 [Linifanib (ABT-869)] | 0.889 | 0.814
C[C@]1(O)C[C@@H](c2nc(-c3ccc4ccc(-c5ccccc5)nc4c3)c3c(N)nccn32)C1 [Linsitinib (OSI-906)] | 0.84 | 0.593
O=C(O)c1nn(Cc2ccc(Cl)cc2Cl)c2ccccc12 [Lonidamine] | 0.934 | 0.87
CCNC(=O)c1noc(-c2cc(C(C)C)c(O)cc2O)c1-c1ccc(CN2CCOCC2)cc1 [Luminespib (AUY-922, NVP-AUY922)] | 0.485 | 0.345
O=c1cc(-c2ccc(O)c(O)c2)oc2cc(O)cc(O)c12 [Luteolin] | 0.82 | 0.754
CN(CCNc1ccnc2cc(Cl)ccc12)CCNc1ccnc2cc(Cl)ccc12 [Lys05] | 0.921 | 0.796
CCC1C/C(=C\c2cccnc2)C(=O)/C(=C/c2cccnc2)C1 (stereo unspecified) [MCB-613] | 0.764 | 0.778
COCCOc1nc(-c2ccc(Cl)c(Cl)c2)n(-c2ccc(NC(=O)CCl)cc2)n1 [MI-2 (MALT1 inhibitor)] | 0.897 | 0.573
Cc1c(CN2CCC(Nc3ncnc4sc(CC(F)(F)F)cc34)CC2)ccc2[nH]c(C#N)cc12 [MI-463] | 0.713 | 0.825
Cc1c(CN2CCC(Nc3ncnc4sc(CC(F)(F)F)cc34)CC2)ccc2c1cc(C#N)n2Cc1cn[nH]c1 [MI-503] | 0.871 | 0.805
O=C(O)CC[C@H]1CC[C@@](c2cc(F)ccc2F)(S(=O)(=O)c2ccc(Cl)cc2)CC1 [MK-0752] | 0.888 | 0.83
CC(C)c1ccc2c(c1)c(SC(C)(C)C)c(CC(C)(C)C(=O)O)n2Cc1ccc(Cl)cc1 [MK-886 (L-663,536)] | 0.989 | 0.843
NC1(c2ccc(-c3nc4ccn5c(=O)[nH]nc5c4cc3-c3ccccc3)cc2)CCC1 [MK-2206 2HCl] | 0.844 | 0.672
CN(C(=O)CNC(=O)/C=C/c1cccc(Cl)c1)C1CCS(=O)(=O)CC1 [ML264] | 0.796 | 0.894
Cc1cnc(-c2ccccc2C(C)C)nc1NCc1ccc(-n2ccnn2)cc1 [ML323] | 0.932 | 0.871
CN(C)CCCNC(=O)c1ccc(-c2cc(O)c3ncccc3c2)cc1 [ML324] | 0.953 | 0.774
